According to patent US20140121233A1, “Synthesis and Characterization of Second Generation Benzofuranone Ring Substituted Noscapine Analogs” (GEORGIA STATE UNIVERSITY RESEARCH FOUNDATION, INC., priority 2011, published 2014):
Where two headings read alike, the source gives them in different places.

Assays:
[1] = test system: MCF-7 (breast) cancer cells; assay: MTT cytotoxicity assay, MCF-7; format: cell-based
Method: (§1) CEM (lymphoma), A549 (lung), PC-3 (prostate), MIA PaCa-2 (pancreatic), MCF-7 and MDA-MB-231 (breast) cancer cells were purchased from ATCC. PC3, A549, MDA-MB-231 and CEM were cultured in RPMI-1640 medium supplemented with 10% Fetal Bovine Serum (FBS) and 1% penicillin/streptomycin. MIA PaCa-2 and MCF-7 cells were cultured in DMEM supplemented with 10% FBS and 1% penicillin/streptomycin. Primary human dermal fibroblasts (HDF) from the dermis of normal human neonatal foreskin were obtained from the Dermatology Department, Emory University. MTT dye (Thiazolyl Blue Tetrazolium Bromide) dimethyl sulfoxide (DMSO), propidium iodide and RNase were purchased from Sigma (St. Louis, Mo.). Cells were cultured at 37° C. with 5% CO2.
(§2) MTT (3-(4,5-dimethylthiazol-2-yl)-2,5-diphenyltetrazolium bromide) assay was employed to evaluate the proliferative capacity of cells. Essentially, MTT is a colorimetric assay, which utilizes the […] tetrazolium dye and converts it into a colored formazan salt, which can be quantified by measuring absorbance at 570 nm. Briefly, a 96-well format was used to seed […] medium containing cells at a density of 5×10^3 cellsper well. After 24 h of incubation, cells were treated with gradient concentration of the test compounds, which were dissolved in DMSO. The final concentration of DMSO in the culture medium was maintained at 0.1%. After 48 h of drug incubation, the spent medium was removed and the wells were washed twice with PBS. 100 μl of fresh medium and 10 μl of MTT (5 mg/ml in PBS) was added to the wells and cells were incubated at 37° C. in dark for 4 h. The formazan product was dissolved by adding 100 μl of 100% DMSO after removing the medium from each well. The absorbance was measured at 570 nm using a Spectra Max Plus multi-well plate reader (Molecular Devices, USA).

[2] = test system: CEM (lymphoma) cancer cells; assay: MTT cytotoxicity assay, CEM; format: cell-based; details: 48 h drug incubation
Method: as §1, §2

[3] = test system: MIA PaCa-2 (pancreatic) cancer cells; assay: MTT cytotoxicity assay, MIA PaCa-2; format: cell-based
Method: as §1, §2

[4] = test system: cancer cell lines (A549, CEM, MCF-7, MIA PaCa-2, PC-3); assay: MTT cytotoxicity assay, several cancer cell lines together; format: cell-based; details: for antiproliferative activity, comparison in words: across cell lines of Table 3
Method: as §1, §2

[5] = test system: PC-3 (prostate) cancer cells; assay: MTT cytotoxicity assay, PC-3; format: cell-based; details: 48 h drug incubation
Method: as §1, §2

A549 (lung) cancer cells = assay: MTT cytotoxicity assay, A549; format: cell-based
Method: as §1, §2

MDA-MB-231 cells = assay: Cell-cycle analysis by flow cytometry; format: cell-based; details: 25 μM; for G2/M population up to 24 h: 12 and 24 h
Method: Flow-cytometric evaluation of the cell-cycle status was performed as described previously. Control and drug treated cells were centrifuged, washed with ice-cold PBS, and fixed in 70% ethanol. Tubes containing the cell pellets were stored at 4° C. for at least 24 h. Cells were then centrifuged at 1000 g for 10 min and the supernatant was discarded. The pellets were washed twice with 5 ml of PBS and then stained with 0.5 ml of propidium iodide (0.1% in 0.6% Triton-X in PBS) and 0.5 ml of RNase A (2 mg/ml) for 45 min in dark. Samples were then analyzed on a BD FACSCanto II flow-cytometer (BD Biosciences, Sparks, Md.).
To gain further insights into the precise mechanisms responsible for inhibition of cellular proliferation, we next examined the effect of benzofuranone ring substituted analogs on cell cycle distribution profiles of breast cancer MDA-MB-231 cells. The effect of compounds 3-7 on mitotic index (percent G2/M cells) and apoptotic index (percent sub-G1 cells) as a function of time in MDA-MB-231 cells was studied using fluorescence activated cell sorting (FACS) analysis. All 5 compounds were used at 25 μM concentration over 48 h of treatment.
Although staining of DNA with propidium iodide is extremely useful to determine the percent cell population in various cell-cycle phases, it has its limitations. For example, it cannot dissect out the differences between G2 and M phases as both have 4N DNA amounts. Thus, to explore further, a mitosis specific marker, MPM-2, was used to distinctly identify which phase the cells were in.

[6] = Homo sapiens, MCF7, 48 h drug incubation
[7] = Homo sapiens, MIA PaCa-2, 48 h drug incubation
[8] = Homo sapiens, A549, 48 h drug incubation

melting point [°C] | SMILES | IC50 ([1]; 48 h drug incubation) [µM] | IC50 [2] [µM] | IC50 ([3]; 48 h drug incubation) [µM] | IC50 ([4]; majority of the cell lines, read-out: IC50 values, majority of the cell lines) [µM] | IC50 [5] [µM] | IC50 (A549 (lung) cancer cells; 48 h drug incubation) [µM] | IC50 [1, 6] [µM] | IC50 [3, 7] [µM] | antiproliferative activity, comparison in words [4] | IC50 (A549 (lung) cancer cells; [8]) [µM] | IC50 ([4]; lung, lymphoma, pancreatic and prostate, read-out: IC50 values, lung, lymphoma, pancreatic and prostate cancer cells) [µM] | G2/M population up to 24 h (MDA-MB-231 cells) | G2/M population at 48 h (MDA-MB-231 cells; 48 h) | apoptotic index (sub-G1) (MDA-MB-231 cells; 48 h) | duration of G2 arrest (MDA-MB-231 cells; MPM-2 marker) | IC50 ([4]; lung, pancreatic and prostate, read-out: IC50 values, lung, pancreatic and prostate cancer cells) [µM]
– | COc1ccc2c(c1OC(=O)Nc1ccccc1)C(=O)O[C@@H]2[C@H]1c2c(cc3c(c2OC)OCO3)CCN1C [Compound 6, (S)-5-methoxy-1-0)-4-methoxy-6-methyl-5,6,7,8-tetrahydro-[1,3]dioxolo[4,5-g]isoquinolin-5-yl)-3-oxo-1,3-dihydroisobenzofuran-4-yl phenylcarbamate] | 182 | 250 | 1 | 50 to 250 | 83.2 | 50 | – | – | – | – | – | – | – | – | – | –
– | COc1ccc2c(c1OC(=O)NCc1ccccc1)C(=O)O[C@@H]2[C@H]1c2c(cc3c(c2OC)OCO3)CCN1C [Compound 7, (S)-5-methoxy-1-((R)-4-methoxy-6-methyl-5,6,7,8-tetrahydro-[1,3]dioxolo[4,5-g]isoquinolin-5-yl)-3-oxo-1,3-dihydroisobenzofuran-4-yl benzylcarbamate] | – | 7.1 | – | – | 49 | – | 74.1 | 24.5 | relatively lower IC50 values when compared to compound 6 | 25 | – | – | – | – | – | –
– | COc1ccc2c(c1OC)C(=O)O[C@@H]2[C@H]1c2c(cc3c(c2OC)OCO3)CCN1C [Noscapine] | – | 20 | – | – | 51 | – | 45 | 70 | – | 73 | – | – | – | – | – | –
– | COc1ccc2c(c1OC(C)=O)C(=O)O[C@@H]2[C@H]1c2c(cc3c(c2OC)OCO3)CCN1C [Compound 3, (S)-5-methoxy-1-(R)-4-methoxy-6-methyl-5,6,7,8-tetrahydro-[1,3]dioxolo[4,5-g]isoquinolin-5-yl)-3-oxo-1,3-dihydroisobenzofuran-4-yl acetate] | 166 | 15.5 | 1 | – | 9.3 | 3.2 | – | – | generally most-effective against most cell lines | – | 1 to 15 | G2/M population increased considerably | G2/M population decreased significantly | – | – | –
– | CCNC(=O)Oc1c(OC)ccc2c1C(=O)O[C@@H]2[C@H]1c2c(cc3c(c2OC)OCO3)CCN1C [Compound 5] | 49 | 1.7 | 49 | – | 6.6 | 5.6 | – | – | – | – | – | G2/M population increased considerably | mostly remained arrested in G2/M phase | lower compared to compound 3 | the arrest was maintained until 48 h | –
142 to 143 | COc1ccc2c(c1O)C(=O)O[C@@H]2[C@H]1c2c(cc3c(c2OC)OCO3)CCN1C [Compound 2, (S)-7-hydroxy-6-methoxy-3-((R)-4-methoxy-6-methyl-5,6,7,8-tetrahydro[1,3]dioxolo-[4,5-g]isoquinolin-5-yl)isobenzofuran-1(3H)-one] | – | – | – | – | – | – | – | – | – | – | – | – | – | – | – | –
– | COc1ccc2c(c1OC(=O)c1ccccc1)C(=O)O[C@@H]2[C@H]1c2c(cc3c(c2OC)OCO3)CCN1C [Compound 4, (S)-5-methoxy-1-(R)-4-methoxy-6-methyl-5,6,7,8-tetrahydro-[1,3]dioxolo[4,5-g]isoquinolin-5-yl)-3-oxo-1,3-dihydroisobenzofuran-4-yl benzoate] | 34 | 49 | 1.7 | – | 4.8 | 4.5 | – | – | – | – | – | – | – | – | – | < 5
